According to US8163728B2, “Pyrazoles” (Hoffmann-La Roche Inc., priority 2009, dated 2012):
pKi: −log10 of the molar value.

Target: T1, GABA A α5 (Homo sapiens, UniProt P18507+P31644)
T1 construct: expressed in transfected cells; host or cells: HEK293 cells, transiently transfected; membranes prepared from cell pellets
Assay: [3H]flumazenil competition binding, human GABA A α5β3γ2 receptors in HEK293 cell membranes
Conditions: human receptor α5β3γ2 transiently transfected in HEK293; 0.5 nM [3H]flumazenil; 1 hour at 4° C.; means of two determinations; read-out: hKi GABA A α5
Outline: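 Competition with [3H]flumazenil for binding to membranes of HEK293 cells transiently expressing human α5β3γ2, in Krebs-tris buffer pH 7.5. Incubated to equilibrium 1 h at 4 °C, filtered and scintillation-counted; Ki values are means of two determinations.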

pKi	Compound
7.97	Cc1onc(-c2ccc(F)cc2)c1COc1cc(C(=O)N[C@H](C)CO)n(C)n1 (single isomer, unassigned) [Example 76, (−)-5-[3-(4-Fluoro-phenyl)-5-methyl-isoxazol-4-ylmethoxy]-2-methyl-2H-pyrazole-3-carboxylic acid ((S)-2-hydroxy-1-methyl-ethyl)-amide or 5-[3-(4-fluoro-phenyl)-5-methyl-isoxazol-4-ylmethoxy]-2-methyl-2H-pyrazole-3-carboxylic acid ((R)-2-hydroxy-1-methyl-ethyl)-amide or enantiomer]
8.09	CC(NC(=O)c1cc(OCc2c(-c3ccc(Cl)cc3)noc2CO)nn1C)C(F)(F)F (stereo in doubt) [Example 106, 5-[3-(4-Chloro-phenyl)-5-hydroxymethyl-isoxazol-4-ylmethoxy]-2-methyl-2H-pyrazole-3-carboxylic acid ((S)-2,2,2-trifluoro-1-methyl-ethyl)-amide]
7.83	Cn1nc(OCc2c(-c3ccc(F)cc3)noc2CO)cc1C(N)=O [Example 93, 5-[3-(4-Fluoro-phenyl)-5-hydroxymethyl-isoxazol-4-ylmethoxy]-2-methyl-2H-pyrazole-3-carboxylic acid amide]
7.92	Cc1onc(-c2ccc(F)cn2)c1CNc1cc(C(=O)NC2CCOCC2)n(C)n1 [Example 164, 3-((3-(5-Fluoropyridin-2-yl)-5-methylisoxazol-4-yl)methylamino)-1-methyl-N-(tetrahydro-2H-pyran-4-yl)-1H-pyrazole-5-carboxamide]
7.55	Cc1onc(-c2ccc(F)cc2)c1/C=C\c1cc(C(=O)NC(C)C)n(C)n1 [Example 120, 5-{(Z)-2-[3-(4-Fluoro-phenyl)-5-methyl-isoxazol-4-yl]-vinyl}-2-methyl-2H-pyrazole-3-carboxylic acid isopropylamide]
7.96	Cc1onc(-c2ccc(F)cc2)c1/C=C/c1cc(C(=O)NC(C)(C)CO)[nH]n1 [Example 138, 5-{(E)-2-[3-(4-Fluoro-phenyl)-5-methyl-isoxazol-4-yl]vinyl}-2H-pyrazole-3-carboxylic acid (2-hydroxy-1,1-dimethyl-ethyl)-amide]
8.46	Cc1onc(-c2ccc(F)cn2)c1COc1cc(C(=O)NC2CCOCC2)n(C)n1 [Example 84, 5-[3-(5-Fluoro-pyridin-2-yl)-5-methyl-isoxazol-4-ylmethoxy]-2-methyl-2H-pyrazole-3-carboxylic acid (tetrahydro-pyran-4-yl)-amide]
8.18	Cn1nc(OCc2c(-c3ccc(Cl)cc3)noc2CO)cc1C(=O)NCC(F)(F)C(F)(F)F [Example 104, 5-[3-(4-Chloro-phenyl)-5-hydroxymethyl-isoxazol-4-ylmethoxy]-2-methyl-2H-pyrazole-3-carboxylic acid (2,2,3,3,3-pentafluoro-propyl)-amide]
7.69	Cc1onc(-c2ccccc2)c1/C=C\c1cc(C(=O)NC(C)C)[nH]n1 [Example 119, 5-[(Z)-2-(5-Methyl-3-phenyl-isoxazol-4-yl)-vinyl]-2H-pyrazole-3-carboxylic acid iso-propylamide]
7.16	Cc1onc(-c2ccc(F)cc2)c1CNc1cc(C(N)=O)n(C)n1 [Example 145, 5-{[3-(4-Fluoro-phenyl)-5-methyl-isoxazol-4-ylmethyl]-amino}-2-methyl-2H-pyrazole-3-carboxylic acid amide]
7.28	Cn1nc(OCc2c(-c3ccc(Cl)cc3)noc2CO)cc1C(=O)N1CCC(F)(F)CC1 [Example 111, {5-[3-(4-Chloro-phenyl)-5-hydroxymethyl-isoxazol-4-ylmethoxy]-2-methyl-2H-pyrazol-3-yl}-(4,4-difluoro-piperidin-1-yl)-methanone]
8.31	Cn1nc(OCc2c(-c3ccc(F)cc3)noc2CO)cc1C(=O)NC1(C)COC1 (racemic) [Example 98, Rac-5-[3-(4-fluoro-phenyl)-5-hydroxymethyl-isoxazol-4-ylmethoxy]-2-methyl-2H-pyrazole-3-carboxylic acid (3-methyl-oxetan-3-yl)-amide]
7.79	Cc1onc(-c2ccccn2)c1COc1cc(C(=O)NC(C)CO)nn1C (stereo in doubt) [Example 114, 1-Methyl-5-(5-methyl-3-pyridin-2-yl-isoxazol-4-ylmethoxy)-1H-pyrazole-3-carboxylic acid ((S)-2-hydroxy-1-methyl-ethyl)-amide]
8.70	Cc1onc(-c2ccc(F)cc2)c1/C=C/c1cc(C(=O)NCC(C)(C)O)n(C)n1 [Example 124, 5-{(E)-2-[3-(4-Fluoro-phenyl)-5-methyl-isoxazol-4-yl]vinyl}-2-methyl-2H-pyrazole-3-carboxylic acid (2-hydroxy-2-methyl-propyl)-amide]
8.24	Cc1onc(-c2ccc(F)cc2)c1COc1cc(C(=O)NCC(C)(C)CO)n(C)n1 [Example 65, 5-[3-(4-Fluoro-phenyl)-5-methyl-isoxazol-4-ylmethoxy]-2-methyl-2H-pyrazole-3-carboxylic acid (3-hydroxy-2,2-dimethyl-propyl)-amide]
9.00	Cn1nc(OCc2c(-c3ccc(F)cc3)noc2CO)cc1C(=O)NC1CCOCC1 [Example 91, 5-[3-(4-Fluoro-phenyl)-5-hydroxymethyl-isoxazol-4-ylmethoxy]-2-methyl-2H-pyrazole-3-carboxylic acid (tetrahydro-pyran-4-yl)-amide]
7.62	Cn1nc(OCc2c(-c3ccc(F)cc3)noc2CO)cc1C(=O)N1CC2(COC2)C1 [Example 99, {5-[3-(4-Fluoro-phenyl)-5-hydroxymethyl-isoxazol-4-ylmethoxy]-2-methyl-2H-pyrazol-3-yl}-(2-oxa-6-aza-spiro[3.3]hept-6-yl)-methanone]

Continued, compound first:

Compound	pKi
Cc1onc(-c2ccc(F)cc2)c1COc1cc(C(=O)NN2CCCC2)n(C)n1 [Example 51, 5-[3-(4-Fluoro-phenyl)-5-methyl-isoxazol-4-ylmethoxy]-2-methyl-2H-pyrazole-3-carboxylic acid pyrrolidin-1-ylamide]	7.94
CCCCc1noc(C)c1COc1cc(C(=O)NN2CCOCC2)[nH]n1 [Example 39, 5-(3-Butyl-5-methyl-isoxazol-4-ylmethoxy)-2H-pyrazole-3-carboxylic acid morpholin-4-ylamide]	8.24
CCCCc1noc(C)c1COc1cc(C(=O)NC2CCOC2)[nH]n1 (single isomer, unassigned; (-)) [Example 34, (−)-(S or R)-3-((3-Butyl-5-methylisoxazol-4-yl)methoxy)-N-(tetrahydrofuran-3-yl)-1H-pyrazole-5-carboxamide]	8.24
Cc1onc(-c2ccc(F)cn2)c1COc1cc(C(=O)NCCO)[nH]n1 [Example 20, 5-[3-(5-Fluoro-pyridin-2-yl)-5-methyl-isoxazol-4-ylmethoxy]-2H-pyrazole-3-carboxylic acid (2-hydroxy-ethyl)-amide]	8.40
Cc1onc(-c2ccc(F)cc2)c1COc1cc(C(=O)NN2CCCC2)[nH]n1 [Example 10, 5-[3-(4-Fluoro-phenyl)-5-methyl-isoxazol-4-ylmethoxy]-2H-pyrazole-3-carboxylic acid pyrrolidin-1-ylamide]	8.42
Cc1onc(-c2ccc(F)cc2)c1COc1cc(C(=O)NCCO)n(C)n1 [Example 62, 5-[3-(4-Fluoro-phenyl)-5-methyl-isoxazol-4-ylmethoxy]-2-methyl-2H-pyrazole-3-carboxylic acid (2-hydroxy-ethyl)-amide]	8.15
Cc1onc(-c2ccc(F)cc2)c1COc1cc(C(=O)NN2CCCCC2)n(C)n1 [Example 49, 5-[3-(4-Fluoro-phenyl)-5-methyl-isoxazol-4-ylmethoxy]-2-methyl-2H-pyrazole-3-carboxylic acid piperidin-1-ylamide]	7.71
Cc1onc(-c2ccccc2)c1COc1cc(C(=O)NCCO)n(C)n1 [Example 42, 2-Methyl-5-(5-methyl-3-phenyl-isoxazol-4-ylmethoxy)-2H-pyrazole-3-carboxylic acid (2-hydroxy-ethyl)-amide]	7.80
CCCCc1noc(C)c1COc1cc(C(=O)NCC(F)(F)F)[nH]n1 [Example 31, 5-(3-Butyl-5-methyl-isoxazol-4-ylmethoxy)-2H-pyrazole-3-carboxylic acid (2,2,2-trifluoro-ethyl)-amide]	8.19
CCCCc1noc(C)c1COc1cc(C(=O)NC2CCOC2)[nH]n1 (single isomer, unassigned; (+)) [Example 35, (+)-(R or S)-3-((3-Butyl-5-methylisoxazol-4-yl)methoxy)-N-(tetrahydrofuran-3-yl)-1H-pyrazole-5-carboxamide]	8.22
Cc1onc(-c2ccccc2)c1COc1cc(C(=O)NC(C)C)[nH]n1 [Example 2, 5-(5-Methyl-3-phenyl-isoxazol-4-ylmethoxy)-2H-pyrazole-3-carboxylic acid isopropylamide]	7.49
Cc1onc(-c2ccc(F)cc2)c1COc1cc(C(=O)NN2CCOCC2)n(C)n1 [Example 50, 5-[3-(4-Fluoro-phenyl)-5-methyl-isoxazol-4-ylmethoxy]-2-methyl-2H-pyrazole-3-carboxylic acid morpholin-4-ylamide]	8.46
Cc1onc(-c2ccccc2)c1COc1cc(C(=O)NN(C)C)n(C)n1 [Example 47, 2-Methyl-5-(5-methyl-3-phenyl-isoxazol-4-ylmethoxy)-2H-pyrazole-3-carboxylic acid N′,N′-dimethyl-hydrazide]	7.30
CCCCc1noc(C)c1COc1cc(C(=O)NC2CCOC2)[nH]n1 (racemic) [Example 28, Rac-5-(3-Butyl-5-methyl-isoxazol-4-ylmethoxy)-2H-pyrazole-3-carboxylic acid (tetrahydrofuran-3-yl)-amide]	8.27
Cc1onc(-c2ccc(F)cc2)c1COc1cc(C(N)=O)n(C)n1 [Example 54, 5-[3-(4-Fluoro-phenyl)-5-methyl-isoxazol-4-ylmethoxy]-2-methyl-2H-pyrazole-3-carboxylic acid amide]	7.92
